Biological target: T1, GCase (Homo sapiens, UniProt P04062)
T1 construct: endogenous in cells; host or cells: HeLa cells
T1 sequence (P04062 40-536): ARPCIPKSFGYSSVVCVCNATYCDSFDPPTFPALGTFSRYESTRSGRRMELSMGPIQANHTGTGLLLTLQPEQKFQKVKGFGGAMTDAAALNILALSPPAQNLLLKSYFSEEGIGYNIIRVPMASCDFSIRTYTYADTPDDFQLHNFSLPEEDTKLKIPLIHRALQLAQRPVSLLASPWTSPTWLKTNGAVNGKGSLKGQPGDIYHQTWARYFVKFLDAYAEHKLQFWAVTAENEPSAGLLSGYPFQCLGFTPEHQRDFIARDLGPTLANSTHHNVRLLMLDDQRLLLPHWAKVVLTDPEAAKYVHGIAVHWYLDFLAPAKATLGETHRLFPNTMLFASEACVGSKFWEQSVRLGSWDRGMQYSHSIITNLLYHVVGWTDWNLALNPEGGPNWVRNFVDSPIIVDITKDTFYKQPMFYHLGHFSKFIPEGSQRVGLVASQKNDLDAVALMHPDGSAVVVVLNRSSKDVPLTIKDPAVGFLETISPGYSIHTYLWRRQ
Experiment: activation of GCase in a live cell PFB assay in HELA cells
Type: cell-based
Method: Exemplary compounds were evaluated for activation of GCase in a live cell PFB assay in HELA cells (essentially as described in Ysselstein et al., “LRRK2 kinase activity regulates lysosomal glucocerebrosidase in neurons derived from Parkinson's disease patients” Nature Communications (2019) 10:5570). […] EC50 ranges: A: <10 μM; B: >10-50 μM; C: >50-100 μM; D: >100 μM.

[1] = activation of GCase, EC50 ranges

SMILES | EC50 [1] | EC50 (EC50 given as range classes)
Cc1nc(N2CCC3(CCN(c4cnc5cnn(CC(F)F)c5n4)CC3)C2=O)cc(C(F)(F)F)n1 [Cmpd 512] | < 10 µM | 
Cc1cc(Cl)cnc1N1CC2(CCN(c3cnc4cnn(CC(F)F)c4n3)C2)C1 [Cmpd 408] |  | 10 to 50 µM
CCn1c(N2CCC3(CCN(c4cc(C(F)(F)F)nc(C)n4)C3)CC2)nc2c(cnn2CC(F)F)c1=O [Cmpd 1102] | < 10 µM | 
CCn1c(=O)n(CC(F)F)c2nc(N3CCC4(CN(c5ccnc(C(F)(F)F)c5)C4)C3)cnc21 [Cmpd 980] |  | < 10 µM
O=C1N(c2ccc(C(F)(F)F)nc2)CCC12CCN(c1cnc3cnn(CC(F)F)c3n1)CC2 [Cmpd 673] | < 10 µM | 
CCN1C(=O)N(c2cnc3cnn(CC(F)F)c3n2)C(=O)C12CCN(c1ccc(C(F)(F)F)cn1)CC2 [Cmpd 860] | 10 to 50 µM | 
O=C1N(c2ccc(C(F)(F)F)cn2)CCC12CC1CCC(C2)N1c1cnc2cnn(CC(F)F)c2n1 (stereo not shown) [Cmpd 798] |  | 10 to 50 µM
FC(F)Cn1ncc2ncc(N3CCC4(CC3)CCN(c3ncccc3C(F)(F)F)C4)nc21 [Compound 145, 8-[1-(2,2-difluoroethyl)-1H-pyrazolo[3,4-b]pyrazin-6-yl]-2-[3-(trifluoromethyl)pyridin-2-yl]-2,8-diazaspiro[4.5]decane] | 10 to 50 µM | 
COc1nn(CC(F)F)c2nc(N3CCC4(CC3)CC(=O)N(c3ccc(C(F)(F)F)nc3)C4)cnc12 [Cmpd 837] | < 10 µM | 
Cc1nc(N2CCC3(CCN(c4cc5c(cn4)c(C)nn5CC(F)F)CC3)C2)cc(C(F)(F)F)n1 [Cmpd 630] |  | 10 to 50 µM
CCn1c(N2CCC3(CCN(c4cc(C(F)(F)F)nc(C)n4)C3)CC2)nc2c(cnn2C2COC2)c1=O [Cmpd 1110] | 50 to 100 µM | 
COc1nn(CC(F)F)c2nc(N3CCC4(CN(c5ccnc(C(F)(F)F)c5)C4)C3)cnc12 [Cmpd 936] | < 10 µM | 
Cc1nn(C2COC2)c2nc(N3CCC4(CC3)CCN(c3ccc(C(F)(F)F)nc3)C4=O)cnc12 [Cmpd 885] | 10 to 50 µM | 
Cc1nc(OCC(F)(F)F)ncc1N1CC2(CCN(c3cnc4cnn(CC(F)F)c4n3)C2)C1 [Cmpd 959] | 10 to 50 µM | 
FC(F)Cn1ncc2ncc(N3CCCC4(CCN(c5ccc(C(F)(F)F)nc5)CC4)C3)nc21 [Cmpd 220] |  | < 10 µM
Cc1nc(N2CC3(CCN(c4cnc5cnn(CC(F)F)c5n4)C3)C2)ncc1Cl [Cmpd 402] |  | > 100 µM
O=C1N(c2cc(C(F)(F)F)ccn2)C(=O)C2(CCN(c3cnc4cnn(CC(F)F)c4n3)CC2)N1Cc1cc(F)cc(F)c1 [Cmpd 716] | < 10 µM | 
Cc1nn(CC(F)F)c2nc(N3CCC4(CN(c5ccnc(C(F)(F)F)c5)C4)C3=O)cnc12 [Cmpd 1001] |  | < 10 µM
COc1nn(CC(F)F)c2nc(N3CCC4(CCN(c5cc(C(F)(F)F)nc(C)n5)C4)CC3)cnc12 [Cmpd 1096] | < 10 µM | 
FC(F)(F)Cn1ncc2cnc(N3CCC4(CN(c5cnc(C(F)(F)F)nc5)C4)C3)nc21 [Cmpd 432] |  | < 10 µM
FC(F)Cn1ncc2ncc(N3CCCC4(CCN(c5ccnc(C(F)(F)F)c5)CC4)C3)nc21 [Cmpd 226] |  | > 100 µM

SMILES | EC50 [1] | EC50 (EC50 given as range classes)
FC(F)Cn1ncc2ncc(NC3COC4(C3)CN(c3ccc(C(F)(F)F)nc3)C4)nc21 (stereo not shown) [Cmpd 191] |  | 10 to 50 µM
Cc1cc(C(F)(F)F)nnc1N1CCC2(CCN(c3cnc4cnn(CC(F)F)c4n3)CC2)C1 [Cmpd 756] | 10 to 50 µM | 
Cn1c(N2CCC3(CN(c4ccnc(C(F)(F)F)n4)C3)C2)nc2c(cnn2CC(F)F)c1=O [Cmpd 991] |  | < 10 µM
COc1ccc(C(=O)N2CC3(CCN(c4cnc5cnn(CC(F)F)c5n4)C3)C2)cc1 [Cmpd 379] |  | 10 to 50 µM
Cc1ncc(-c2nncs2)nc1N1CCC2(CN(c3ccnc(C(F)(F)F)c3)C2)C1 [Cmpd 1037] | < 10 µM | 
Cc1nn(CC(F)F)c2nc(N3CCC4(CC3)CCN(c3cc(C(F)F)ccn3)C4=O)cnc12 [Compound 167, 8-[1-(2,2-difluoroethyl)-3-methyl-1H-pyrazolo[3,4-b]pyrazin-6-yl]-2-[4-(difluoromethyl)pyridin-2-yl]-2,8-diazaspiro[4.5]decan-1-one] | 10 to 50 µM | 
Cc1nc(N2CCC3(CCN(c4ccc5cnn(CC(F)F)c5n4)CC3)C2)cc(C(F)(F)F)n1 [Cmpd 625] |  | < 10 µM
O=C1N(c2ccnc(C(F)(F)F)c2)CCC12CN(c1cnc3cnn(C4COC4)c3n1)C2 [Cmpd 346] | 50 to 100 µM | 
Cn1c(-c2ccccc2)c(C(=O)N2CCCC3(CC(Oc4cccnc4C(F)(F)F)C3)C2)c2nccnc21 (stereo not shown) [Compound 108, 6-{5-methyl-6-phenyl-5H-pyrrolo[2,3-b]pyrazine-7-carbonyl}-2-{[2-(trifluoromethyl)pyridin-3-yl]oxy}-6-azaspiro[3.5]nonane] | 10 to 50 µM | 
FC(F)Cn1ncc2ncc(N3CCC4(CN(c5ccnc(OCC(F)(F)F)n5)C4)C3)nc21 [Cmpd 960] | 10 to 50 µM | 
CC(C)N1C(=O)N(c2ccc(C(F)(F)F)nc2)C(=O)C12CCN(c1cnc3cnn(CC(F)F)c3n1)CC2 [Cmpd 848] | 10 to 50 µM | 
O=S(=O)(c1ccccc1F)N1CC2(CCN(c3cnc4cnn(CC(F)F)c4n3)C2)C1 [Cmpd 395] |  | < 10 µM
Cc1nn(CC(F)F)c2nc(N3CCC4(CN(c5ccnc(C(F)(F)F)c5)C4)C3)n(C)c(=O)c12 [Cmpd 994] |  | < 10 µM
Cc1nc(N2CCC3(CC2)CN(c2cnc4cnn(CC(F)(F)F)c4n2)C3)cc(C(F)(F)F)n1 [Cmpd 587] |  | 10 to 50 µM
FC(F)Cn1ncc2ncc(NC3CCC4(CCN(c5ccc(C(F)(F)F)nc5)CC4)C3)nc21 (stereo not shown) [Cmpd 195] |  | 10 to 50 µM
FC(F)Cn1ncc2ncc(N3CCCC4(CCN(c5ccc(C(F)(F)F)cn5)CC4)C3)nc21 [Cmpd 218] |  | 10 to 50 µM
Cc1nn(CC(F)(F)F)c2nc(N3CCC4(CN(c5cnc(C(F)(F)F)nc5)C4)C3)cnc12 [Cmpd 605] |  | > 100 µM
Cn1c(N2CCC3(CC2)CC(=O)N(Cc2cnc(C(F)(F)F)nc2)C3)nc2c(cnn2CC(F)F)c1=O [Cmpd 926] | 10 to 50 µM | 
O=C1N(c2cnc3cnn(CC(F)F)c3n2)CCC12CN(c1ccc(C(F)(F)F)cn1)C2 [Cmpd 1011] |  | 10 to 50 µM
O=C1CC2(CN(c3ccnc(C(F)(F)F)c3)C2)CN1c1cnc2cnn(CC(F)F)c2n1 [Cmpd 340] | < 10 µM | 
O=C(c1ccc(Cl)cc1)N1CC2(CCN(c3cnc4cnn(CC(F)F)c4n3)C2)C1 [Cmpd 378] |  | > 100 µM

SMILES | EC50 [1] | EC50 (EC50 given as range classes)
FC(F)Cn1ncc2ncc(N3CCC4(CN(c5cncc(C(F)(F)F)n5)C4)C3)nc21 [Cmpd 298] | > 100 µM | 
COc1nn(CC(F)F)c2nc(N3CCC4(CC3)CCN(c3cnc(C(F)(F)F)nc3C)C4)cnc12 [Cmpd 1094] | < 10 µM | 
CCn1ncc2cnc(N3CCC4(CC3)CC(=O)N(c3ccc(C(F)(F)F)nc3)C4)nc21 [Cmpd 889] | < 10 µM | 
Cc1nc(N2CCC3(C2)CN(c2cnc4c(C)nn(CC(F)F)c4n2)C3)cc(C(F)(F)F)n1 [Cmpd 578] |  | 10 to 50 µM
Cn1c(N2CCC3(CN(c4ccnc(C(F)(F)F)c4)C3)C2)nc2c(cnn2CC(F)F)c1=O [Cmpd 989] |  | > 100 µM
CCn1c(N2CCC3(CCN(c4cc(C)nc(C(F)(F)F)n4)C3)CC2)nc2c(cnn2CC(F)F)c1=O [Cmpd 1105] | < 10 µM | 
O=C1N(c2cccnc2C(F)(F)F)CCC12CCN(c1cnc3cnn(CC(F)F)c3n1)CC2 [Compound 135, 8-[1-(2,2-difluoroethyl)-1H-pyrazolo[3,4-b]pyrazin-6-yl]-2-[2-(trifluoromethyl)pyridin-3-yl]-2,8-diazaspiro[4.5]decan-1-one] | 50 to 100 µM | 
FC(F)Cn1ncc2ncc(N3CCOC4(CCN(c5ccc(C(F)(F)F)cn5)CC4)C3)nc21 [Cmpd 212] |  | 10 to 50 µM
FC(F)Cn1ncc2ncc(N3CC4(CCN(c5cncc(C(F)(F)F)c5)CC4)C3)nc21 [Compound 126, 2-[1-(2,2-difluoroethyl)-1H-pyrazolo[3,4-b]pyrazin-6-yl]-7-[5-(trifluoromethyl)pyridin-3-yl]-2,7-diazaspiro[3.5]nonane] | < 10 µM | 
Cc1nc2cnn(CC(F)F)c2nc1N1CCC2(CN(c3ccnc(C(F)(F)F)c3)C2)C1 [Cmpd 1035] | < 10 µM | 
FC(F)Cn1ncc2cnc(N3CCC4(CCN(c5ccc(C(F)(F)F)nc5)C4)CC3)nc21 [Cmpd 827] |  | 10 to 50 µM
COc1ccc(C(F)(F)F)c(N2CCC3(CCN(c4cnc5cnn(CC(F)F)c5n4)CC3)C2=O)n1 [Cmpd 784] |  | < 10 µM
Cc1ncc(N2CC3(CCN(c4cnc5cnn(CC(F)F)c5n4)C3)C2)cn1 [Cmpd 461] | > 100 µM | 
Fc1cc(Cl)cnc1N1CC2(CCN(c3cnc4cnn(CC(F)F)c4n3)C2)C1 [Cmpd 407] |  | 10 to 50 µM
Cc1nc(N2CC3(CCN(c4ncc5c(C)nn(CC(F)(F)F)c5n4)CC3)C2)cc(C(F)(F)F)n1 [Cmpd 618] |  | 10 to 50 µM
FC(F)Cn1ncc2ncc(N3CCC4(CN(c5ccc(C(F)(F)F)cn5)C4)C3)nc21 [Compound 186, 6-[1-(2,2-difluoroethyl)-1H-pyrazolo[3,4-b]pyrazin-6-yl]-2-[5-(trifluoromethyl)pyridin-2-yl]-2,6-diazaspiro[3.4]octane] |  | 10 to 50 µM
FC(F)(F)c1ccc(N2CCC3(CCN(c4cncc(C(F)(F)F)n4)CC3)C2)cn1 [Cmpd 255] | < 10 µM | 
Cc1cc(N2CC3(CCN(c4cnc5c(C)nn(CC(F)F)c5n4)C3)C2)nc(C)n1 [Cmpd 640] | 10 to 50 µM | 
O=C1N(c2ccnc(C(F)(F)F)c2)CCC12CCN(c1cnc3cnn(CC(F)F)c3n1)CC2 [Cmpd 676] | < 10 µM | 

From patent US20250034170A1, “SMALL MOLECULE MODULATORS OF GLUCOCEREBROSIDASE ACTIVITY AND USES THEREOF” (Vanqua Bio, Inc., priority 2021, published 2025)
